Data on 41 molecules can be found in patent US20110059910A1, “Novel aromatic fluoroglycoside derivatives, pharmaceuticals comprising said compounds and the use thereof” (SANOFI-AVENTIS, priority 2008, published 2011).

In the experiment the target is T1, human sodium-dependent glucose transporter 2 (SGLT2, SLC5A2) (Homo sapiens, UniProt P31639).
T1 construct: Bases 21 to 2039 correspond to the complete coding region of human SGLT2; expressed in transfected cells
T1 sequence (P31639 1-672): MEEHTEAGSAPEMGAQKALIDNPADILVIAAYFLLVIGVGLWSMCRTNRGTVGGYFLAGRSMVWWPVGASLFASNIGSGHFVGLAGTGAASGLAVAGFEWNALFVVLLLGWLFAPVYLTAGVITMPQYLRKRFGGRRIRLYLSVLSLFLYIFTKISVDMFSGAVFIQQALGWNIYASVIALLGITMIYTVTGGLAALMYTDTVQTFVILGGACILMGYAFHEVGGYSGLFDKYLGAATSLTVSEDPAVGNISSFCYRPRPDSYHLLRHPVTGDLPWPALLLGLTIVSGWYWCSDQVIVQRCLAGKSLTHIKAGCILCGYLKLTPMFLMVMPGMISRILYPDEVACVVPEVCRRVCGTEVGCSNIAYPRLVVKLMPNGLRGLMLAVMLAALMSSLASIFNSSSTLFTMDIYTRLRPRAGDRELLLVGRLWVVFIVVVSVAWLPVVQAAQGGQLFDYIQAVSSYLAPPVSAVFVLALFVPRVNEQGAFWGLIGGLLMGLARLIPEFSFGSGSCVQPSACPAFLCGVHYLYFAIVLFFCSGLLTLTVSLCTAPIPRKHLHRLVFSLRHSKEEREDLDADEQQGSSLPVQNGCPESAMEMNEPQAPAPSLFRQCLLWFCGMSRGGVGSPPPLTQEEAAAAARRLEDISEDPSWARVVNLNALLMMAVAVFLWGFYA
The experiment is described as follows: Inhibition of the transport activity of human SGLT2 in vitro (α-MDG uptake in CHO-TRex-hSGLT2 cells). In kind it is cell-based. The following applies: 50 μM α-MDG, 120 min at 37° C. The source says:
Inhibition of the Transport Activity of the Human Sodium-Dependent Glucose Transporter 2 (SGLT2, SLC5A2) In Vitro
1. Cloning of an Expression Vector for Human SGLT2
The cDNA for human SGLT2 was introduced into the pcDNA4/TO vector (Invitrogen) by means of standard methods of molecular biology as described in Sambrook et al. (Molecular Cloning, A Laboratory Manual, Second Edition). […] Bases 21 to 2039 correspond to the complete coding region of human SGLT2.
2. Production of a Recombinant Cell Line with Inducible Expression of Human SGLT2
The expression vector for human SGLT2 was introduced into CHO-TREx cells (Invitrogen) by means of FuGene6 lipofection (Roche). To select single cell clones, 600 μg/ml of Zeocin (Invitrogen) was added to the cell culture medium (nutrient mixture F-12 (Ham), (Invitrogen) supplemented with 10% fetal calf serum (FBS Gold, PAA), 10 μg/ml Blasticidin S(CN Biosciences), 100 units/ml penicillin, 100 units/ml streptomycin). The functionality of the single cell clones resulting from the selection was tested via their uptake activity for radiolabeled methyl-α-D-glucopyranoside. That cell clone with the highest uptake activity for methyl-α-D-glucopyranoside, referred to hereinafter as CHO-TRex-hSGLT2, was selected for the further experiments and cultured further in the presence of 600 μg/ml Zeocin.
3. Measurement of the Inhibiting Action of Test Substances on the Uptake of methyl-α-D-glucopyranoside (α-MDG)
CHO-TRex-hSGLT2 cells were seeded in cell culture medium in a concentration of 50 000 cells per well in Cytostar-T scintillating 96-well plates (Amersham Biosciences) and cultivated for 24 h. The expression of the recombinant human SGLT2 was induced by adding 1 μg/ml tetrazykline for a further 24 h. For α-MDG uptake experiments, the cells were washed with PBS and then starved at 37° C. in starvation medium (PBS supplemented with 10% fetal calf serum) for 1 hour. After a further washing step with transport assay buffer (140 mM sodium chloride, 2 mm potassium chloride, 1 mm magnesium chloride, 1 mm calcium chloride, 10 mm HEPES/Tris, pH 7.5), the cells were incubated at room temperature either in the absence or presence of test substances of different concentration for 15 min. The test substances were diluted correspondingly in transport assay buffer proceeding from a 10 mm stock solution in dimethyl sulfoxide (40 μl/well). The assay was subsequently started by adding 10 μl/well of a mixture of radiolabeled methyl-α-D-[U-^14C]glucopyranoside (Amersham) and unlabeled methyl-α-D-glucopyranoside (Acros). The final concentration of methyl-α-D-glucopyranoside in the assay was 50 μM. After an incubation time of 120 min at 37° C., the reaction was stopped by adding 50 μl/well of 10 mM methyl-α-D-glucopyranoside in transport assay buffer (4° C.), and the radioactivity taken up into the cells was determined in a MicroBeta Scintillation Microplate Reader (Wallac).
The half-maximum inhibiting action of the test substances (IC50 value) was determined as follows: • 1. Determination of the value for 0% inhibition. This is the measurement in the absence of substance, measured in sodium-containing transport assay buffer. • 2. Determination of the value for 100% inhibition. This is the measurement in the absence of substance, measured in sodium-free transport assay buffer (140 mM choline chloride, 2 mM potassium chloride, 1 mM magnesium chloride, 1 mM calcium chloride, 10 mM HEPES/Tris, pH7.5). • 3. Calculation of the percentage inhibition values of those measurements which were carried out in the presence of different concentrations of test substance. From this, it was then possible to determine that concentration of the test substance which reduces the uptake of the methyl-α-D-glucopyranoside by 50% (IC50 value).

In general, IC50 refers to the midpoint of a concentration-inhibition curve. With `CCc1ccc(Cc2cc(C3OC(CO)C(F)(F)C(O)C3O)ccc2Cl)cc1` (centres unmarked) [Example 1], the midpoint of inhibition, the IC50, lay at 12 nM.
The molecule `CCOc1ccc(Cc2cc(C3OC(CO)C(F)(F)C(O)C3O)ccc2Cl)cc1` (centres unmarked) [Example 2] came in with an IC50 of 18 nM.
In turn, `CCc1ccc(Cc2cc(C3OC(CO)C(F)C(O)C3O)ccc2Cl)cc1` (centres unmarked) [Example 3] showed an IC50 of 8 nM. This IC50 is about 2.2-fold lower than that of the molecule before.
Take `COc1ccc(Cc2cccc(C3OC(CO)C(F)C(O)C3O)c2)cc1` (centres unmarked) [Example 5]: the IC50 came to 5 nM.
Under `CCc1ccc(Cc2cc(C3OC(CO)C(F)C(O)C3O)ccc2Cl)s1` (centres unmarked) [Example 6] stands 12 nM; under `OCC1OC(c2ccc(Cl)c(Cc3cc4ccccc4s3)c2)C(O)C(O)C1F` (centres unmarked) [Example 7], 15 nM.
In the case of `CCOC(=O)OCC1OC(c2ccc(F)c(Cc3ccc(OC)cc3)c2)C(O)C(O)C1F` (centres unmarked) [Example 8], the IC50 came to 1400 nM.
Under `COc1ccc(Cc2cc(C3OC(CO)C(F)C(O)C3O)ccc2F)cc1` (centres unmarked) [Example 9] stands 32 nM.
In the case of `CCOC(=O)OCC1OC(c2ccc(F)c(Cc3ccc(OC)cc3)c2)C(O)C(O)C1(F)F` (centres unmarked) [Example 10], half-maximal inhibition (IC50) was put at 1400 nM.
On to `COc1ccc(Cc2cc(C3OC(CO)C(F)(F)C(O)C3O)ccc2F)cc1` (centres unmarked) [Example 11], for which the IC50 was found to be 54 nM.
As to `CCOC(=O)OCC1OC(c2ccc(OC)c(Cc3ccc(OC)cc3)c2)C(O)C(O)C1F` (centres unmarked) [Example 12], the IC50 was 2700 nM.
The same measure for `COc1ccc(Cc2cc(C3OC(CO)C(F)C(O)C3O)ccc2OC)cc1` (centres unmarked) [Example 13]: 31 nM; for `COc1ccc(Cc2cc(C3OC(CO)C(F)(F)C(O)C3O)ccc2OC)cc1` (centres unmarked) [Example 15]: 80 nM.
Molecule `CCOC(=O)OCC1OC(c2ccc(Cl)c(Cc3ccc(OCC)cc3)c2)C(O)C(O)C1F` (centres unmarked) [Example 16] registered an IC50 of 2700 nM.
`CCOc1ccc(Cc2cc(C3OC(CO)C(F)C(O)C3O)ccc2Cl)cc1` (centres unmarked) [Example 17] registered an IC50 of 10 nM.
In turn, `CCOC(=O)OCC1OC(c2ccc(Cl)c(Cc3ccc(OCC)cc3)c2)C(O)C(O)C1(F)F` (centres unmarked) [Example 18] returned an IC50 of 897 nM.
`CCOC(=O)OCC1OC(c2ccc(Cl)c(Cc3ccc(OC)cc3)c2)C(O)C(O)C1(F)F` (centres unmarked) [Example 21] returned an IC50 of 339 nM.
For the molecule `COc1ccc(Cc2cc(C3OC(CO)C(F)(F)C(O)C3O)ccc2Cl)cc1` (centres unmarked) [Example 22], the IC50 turned out to be 9 nM.
`CCOC(=O)OCC1OC(c2ccc(Cl)c(Cc3ccc(OC(F)(F)F)cc3)c2)C(O)C(O)C1F` (centres unmarked) [Example 24]: the IC50 came out at 976 nM.
As to `OCC1OC(c2ccc(Cl)c(Cc3ccc(OC(F)(F)F)cc3)c2)C(O)C(O)C1F` (centres unmarked) [Example 25], half-maximal inhibition (IC50) was put at 41 nM.
On to `CCOC(=O)OCC1OC(c2ccc(Cl)c(Cc3ccc(OC(F)(F)F)cc3)c2)C(O)C(O)C1(F)F` (centres unmarked) [Example 26], for which the IC50 is above 10000 nM.
`OCC1OC(c2ccc(Cl)c(Cc3ccc(OC(F)(F)F)cc3)c2)C(O)C(O)C1(F)F` (centres unmarked) [Example 27] had an IC50 of 199 nM.
Under `OC[C@H]1O[C@@H](c2ccc(Cl)c(Cc3ccc(O)cc3)c2)[C@H](O)[C@@H](O)C1(F)F` [Example 30] stands 15 nM; under `CC(C)Oc1ccc(Cc2cc([C@@H]3O[C@H](CO)C(F)(F)[C@H](O)[C@H]3O)ccc2Cl)cc1` [Example 31], 42 nM.
As to `Cc1ccc(C2OC(CO)C(F)(F)C(O)C2O)cc1Cc1ccc(O)cc1` (centres unmarked) [Example 33], the half-inhibitory concentration (IC50) is 38 nM.
`COc1ccc(Cc2cc(C3OC(CO)C(F)(F)C(O)C3O)ccc2C)cc1` (centres unmarked) [Example 34] gave an IC50 of 27 nM. This IC50 and that of the molecule before are within 1.5-fold of each other.
Under `CCOC(=O)OCC1OC(c2ccc(Cl)c(Cc3ccc(OC)cn3)c2)C(O)C(O)C1F` (centres unmarked) [Example 35] stands 12600 nM; under `COc1ccc(Cc2cc(C3OC(CO)C(F)C(O)C3O)ccc2Cl)nc1` (centres unmarked) [Example 36], 304 nM.
`CCOC(=O)OCC1OC(c2ccc(Cl)c(Cc3ccc(OC)cn3)c2)C(O)C(O)C1(F)F` (centres unmarked) [Example 37] had an IC50 of 11200 nM.
The molecule `COc1ccc(Cc2cc(C3OC(CO)C(F)(F)C(O)C3O)ccc2Cl)nc1` (centres unmarked) [Example 38] yielded a 50% inhibitory concentration (IC50) of 393 nM.
In the case of `CCOC(=O)OC[C@H]1O[C@@H](c2ccc(OC(F)(F)F)c(Cc3ccc(OC)cc3)c2)[C@H](O)[C@@H](O)[C@@H]1F` [Example 39], the IC50 is 19800 nM.
Under `COc1ccc(Cc2cc([C@@H]3O[C@H](CO)[C@@H](F)[C@H](O)[C@H]3O)ccc2OC(F)(F)F)cc1` [Example 40] stands 412 nM; under `CCOC(=O)OC[C@H]1O[C@@H](c2ccc(OC(F)(F)F)c(Cc3ccc(OC)cc3)c2)[C@H](O)[C@@H](O)C1(F)F` [Example 41], 12800 nM; under `COc1ccc(Cc2cc([C@@H]3O[C@H](CO)C(F)(F)[C@H](O)[C@H]3O)ccc2OC(F)(F)F)cc1` [Example 42], 982 nM.
`OC[C@H]1O[C@@H](c2ccc(Cl)c(Cc3ccc(Cl)cc3)c2)[C@H](O)[C@@H](O)[C@@H]1F` [Example 44] had a half-inhibitory concentration (IC50) of 24 nM.
The same measure for `OC[C@H]1O[C@@H](c2ccc(Cl)c(Cc3ccc(Cl)cc3)c2)[C@H](O)[C@@H](O)C1(F)F` [Example 46]: 75 nM; for `COc1ccc(Cc2cc([C@@H]3O[C@H](CO)[C@@H](F)[C@H](O)[C@H]3O)ccc2C(F)(F)F)cc1` [Example 48]: 74 nM; for `CCOC(=O)OC[C@H]1O[C@@H](c2ccc(C(F)(F)F)c(Cc3ccc(OC)cc3)c2)[C@H](O)[C@@H](O)C1(F)F` [Example 49]: 8000 nM.
Consider `COc1ccc(Cc2cc([C@@H]3O[C@H](CO)C(F)(F)[C@H](O)[C@H]3O)ccc2C(F)(F)F)cc1` [Example 50], for which it took 154 nM to reach half-maximal inhibition (IC50).
Take `COc1ccc(Cc2cc(C3OC(CO)C(F)C(O)C3O)ccc2Br)cc1` (centres unmarked) [Example 56]: half-maximal inhibition (IC50) was put at 9.4 nM.
The same measure for `CCc1ccc(Cc2cc(C3OC(CO)C(F)C(O)C3O)ccc2C)cc1` (centres unmarked) [Example 61]: 10 nM.
